Results on 35 compounds are retold here after PubChem BioAssay AID1421 (Emory University Molecular Libraries Screening Center, 2008).

For the assay, the target named is Prostaglandin E2 receptor EP2 subtype (Homo sapiens) (UniProt P43116). Briefly: EP2 receptor modulators, dose response, cell-based, human EP2, PGE2 EC50 shift (AID 1421). To be noted: EP2-expressing cells, PGE2 EC50 shift by compound; for PGE2 EC50 with compound: measured here: PGE2 EC50 at 6.7 uM compound.

Active and inactive are the calls of the source. How the calls were made is not given here.

Prostaglandin E2 receptor EP2 subtype (Homo sapiens), sequence (P43116 whole entry, looked up): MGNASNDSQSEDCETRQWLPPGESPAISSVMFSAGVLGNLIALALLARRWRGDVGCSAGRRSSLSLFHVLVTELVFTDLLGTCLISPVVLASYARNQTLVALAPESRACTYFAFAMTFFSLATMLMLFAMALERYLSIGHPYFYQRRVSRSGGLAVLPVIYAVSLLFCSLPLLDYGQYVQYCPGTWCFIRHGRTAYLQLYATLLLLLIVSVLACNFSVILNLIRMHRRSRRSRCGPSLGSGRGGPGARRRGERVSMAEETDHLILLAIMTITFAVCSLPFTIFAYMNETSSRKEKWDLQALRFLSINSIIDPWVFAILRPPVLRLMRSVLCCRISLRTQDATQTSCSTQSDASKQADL

Consider `CN(Cc1ccccc1)c1nc2c(c(=O)[nH]c(=O)n2C)n1Cc1ccccc1Cl`, for which the PGE2 EC50 with compound is 1.05 nM.

Turning to `O=S(=O)(c1ccc(F)cc1)c1snnc1-c1ccccc1`, the PGE2 EC50 with compound is 0.89 nM.

For `CCN(CC)CCN1C(=O)c2cccc3cc(N)cc(c23)C1=O`, the PGE2 EC50 with compound was 2.64 nM.

For `Cc1ccc(C(=O)c2c(NC(=O)c3ccncc3)sc3c2CCCC3)cc1`, the result was active and the PGE2 EC50 with compound stood at 0.66 nM.

Take `O=C(CN1CCN(Cc2ccccc2)CC1)Nc1ccccc1-c1ccccc1`: the PGE2 EC50 with compound was found to be 2.97 nM.

As for `O=C(Nc1cc(C(F)(F)F)ccc1-n1cncn1)c1ccc(-c2ccccc2)cc1`, the result was active and the PGE2 EC50 with compound was found to be 1.15 nM.

As for `C=CCSc1nc2ccccc2c(=O)n1Cc1ccco1`, the PGE2 EC50 with compound is 0.91 nM.

As to `Cc1ccc2c(c1)N(S(=O)(=O)c1ccc(F)cc1)C(C(C)(C)C)CO2` (stereo not given), the PGE2 EC50 with compound was 1.11 nM.

For the compound `COCCn1c(SC(C(=O)Nc2cc(C)ccc2OC)c2ccccc2)nnc1-c1ccc(Cl)cc1` (stereo not given), the outcome was active and the PGE2 EC50 with compound was determined as 1.44 nM.

In the case of `CCOC(=O)c1c(-c2cccs2)csc1NC(=O)COC(=O)c1c(C)noc1C`, the PGE2 EC50 with compound worked out at 0.32 nM.

For `CC(C)Oc1ccc(/C=C(/NC(=O)c2ccccc2)C(=O)NCCC(=O)O)cc1`, the PGE2 EC50 with compound came out at 0.92 nM.

`COC(=O)c1c(NC(=O)Cc2cccs2)sc2c1CCC(C)C2` (stereo not given): the PGE2 EC50 with compound is 0.94 nM.

On to `CN(Cc1cc(Br)cc(Br)c1O)Cc1c(O)ccc2ccccc12`, for which the PGE2 EC50 with compound came to 1.22 nM.

For the compound `CCCc1cc(C(=O)OC)c(NC(=O)c2cc(C)on2)s1`, the result was active and the PGE2 EC50 with compound came out at 0.7 nM.

Consider `CC(Sc1nnc(-c2cccs2)n1Cc1ccccc1)C(=O)NCc1ccc2c(c1)OCO2` (stereo not given), for which the PGE2 EC50 with compound came to 0.62 nM.

Turning to `CCOC(=O)c1cc(C)sc1NC(=O)c1ccc(Cl)s1`, the outcome was active and the PGE2 EC50 with compound was 0.73 nM.

As to `O=C(O)[C@@H]1[C@H](C(=O)O)[C@@H](C(=O)O)C[C@H]1C(=O)O`, the PGE2 EC50 with compound is 0.91 nM.

In the case of `CCCCOc1ccccc1Cn1c(=O)oc2ccc(C)cc21`, the PGE2 EC50 with compound worked out at 0.92 nM.

In the case of `OC1(c2ccc(Br)cc2)CN(c2ccccc2)C2=[N+]1CCS2` (stereo not given), the PGE2 EC50 with compound came to 1.17 nM.

`c1ccc2c(c1)OCC(c1csc3ncnc(N4CCCCC4)c13)O2` (stereo not given): the PGE2 EC50 with compound was determined as 2.54 nM.

In the case of `CCN(Cc1cc(Cl)cc(C)c1O)Cc1c(O)ccc2ccccc12`, the PGE2 EC50 with compound was determined as 0.84 nM.

As for `COc1ccc(C(=O)N2N=C(c3ccccc3)CC2(O)C(F)(F)F)cc1` (stereo not given), the PGE2 EC50 with compound came out at 2.7 nM.

Turning to `CCOC(=O)CNC(=O)c1ccc2c(c1)OCCO2`, the PGE2 EC50 with compound was 2.56 nM.

`Cc1ccc(C(Sc2ccccc2)C(Cn2cncn2)C(=O)c2ccccc2)cc1` (stereo not given): the PGE2 EC50 with compound came out at 0.97 nM.

Regarding `COc1ccc(-n2c(COc3ccc(Cl)cc3)nnc2SCc2ccc(C#N)cc2)cc1`, the PGE2 EC50 with compound was determined as 1.22 nM.

For the compound `CC(C)CCn1c(-c2nonc2N)nc2ccccc21`, the PGE2 EC50 with compound is 1.49 nM.

`CCn1c(COc2ccc(Cl)cc2)nnc1SCC(=O)Nc1ccc2c(c1)OCO2`: the PGE2 EC50 with compound was found to be 1.09 nM.

For the compound `CC(=C\c1ccccc1)/C=C1/SC(=S)N(C(C(=O)O)C(C)C)C1=O` (stereo not given), the PGE2 EC50 with compound was determined as 1.31 nM.

For the compound `CCOC(=O)c1c(N)sc(-c2ccccc2)c1C`, the PGE2 EC50 with compound is 2.56 nM.

With `O=c1c2ccccc2c(-c2ccccc2)nn1-c1ccc(Cl)c(Cl)c1`, the PGE2 EC50 with compound amounted to 1.42 nM.

Regarding `Cn1c(=O)[nH]c(=O)c2c1nc(CN1CCN(c3ccccc3F)CC1)n2CCCc1ccccc1`, the PGE2 EC50 with compound stood at 0.83 nM.

On to `S=c1[nH]nc(-c2ccco2)n1/N=C/c1ccc(Cl)cc1Cl`, for which the PGE2 EC50 with compound was found to be 1.06 nM.

As for `COC(=O)c1ccc(-n2nc(C(F)(F)F)c3c2-c2ccoc2CC3)cc1`, the PGE2 EC50 with compound is 0.79 nM.

In the case of `Cc1ccc(Cn2c(Cc3ccccc3)nc3ccccc32)cc1`, the PGE2 EC50 with compound worked out at 2.5 nM.

`NS(=O)(=O)c1ccc(NCc2cnc3ccccc3n2)cc1`: the PGE2 EC50 with compound amounted to 0.64 nM.
